Laboratory results from article PMC4822888, “Subtype-Selective Small Molecule Inhibitors Reveal a Fundamental Role for Nav1.7 in Nociceptor Electrogenesis, Axonal Conduction and Presynaptic Release” (PLoS ONE, 2016).

Legend:
dogNav1.7 = dogNav1.7 (Canis lupus familiaris, UniProt A0A8I3P4Z8); test: cell-based; type: cell-based, dog
KvLQT = KvLQT (Homo sapiens, UniProt P51787); test: Blockade of KvLQT potassium channels
[1] = tested on: cynomolgus TRPV1 receptor; test: Blockade of cynomolgus TRPV1 receptor; settings: tested concentrations up to 10 μM
Adenosine A1 receptor = Adenosine A1 receptor (Homo sapiens, UniProt P30542); test: Off target activity panel; type: binding; settings: read-out: Inhibition at test concentration (%)
Adenosine A2a receptor = Adenosine A2a receptor (Homo sapiens, UniProt P29274); test: Off target activity panel; type: binding; settings: read-out: Inhibition at test concentration (%)
[2] = tested on: Adrenergic alpha 1 receptor; test: Off target activity panel; type: binding; settings: 10 µM
[3] = target: Adrenergic alpha 2B receptor (Homo sapiens, UniProt P18089); test: Off target activity panel; type: binding; settings: read-out: Inhibition at test concentration (%)
AMPA receptor = test: Off target activity panel; type: binding; settings: 10 µM
[4] = target: Beta 1 adrenergic receptor (Homo sapiens, UniProt P08588); test: Off target activity panel; type: binding; settings: read-out: Inhibition at test concentration (%)
[5] = target: Beta 2 adrenergic receptor (Homo sapiens, UniProt P07550); test: Off target activity panel; type: binding; settings: read-out: Inhibition at test concentration (%)
[6] = tested on: Calcium channel L-type (diltiazem site); test: Off target activity panel; type: binding; settings: 10 µM
Cannabinoid receptor 1 = Cannabinoid receptor 1 (Homo sapiens, UniProt P21554); test: Off target activity panel; type: binding; settings: read-out: Inhibition at test concentration (%)
Choline transporter = Choline transporter (Homo sapiens, UniProt Q9GZV3); test: Off target activity panel; type: binding; settings: read-out: Inhibition at test concentration (%)
[7] = tested on: Cloride channel (GABA-gated); test: Off target activity panel; type: binding
[8] = target: Cholycystokinin 1 (CCKA) receptor (Homo sapiens, UniProt P32238); test: Off target activity panel; type: binding; settings: read-out: Inhibition at test concentration (%)
[9] = target: Cholycystokinin 2 (CCKB) receptor (Homo sapiens, UniProt P32239); test: Off target activity panel; type: binding; settings: read-out: Inhibition at test concentration (%)
Cyclooxygenase 1 = Cyclooxygenase 1 (Homo sapiens, UniProt P23219); test: Off target activity panel; type: biochemical; settings: read-out: Inhibition at test concentration (%)
Dopamine D1 receptor = Dopamine D1 receptor (Homo sapiens, UniProt P21728); test: Off target activity panel; type: binding; settings: read-out: Inhibition at test concentration (%)
Dopamine D2 receptor = Dopamine D2 receptor (Homo sapiens, UniProt P14416); test: Off target activity panel; type: binding; settings: read-out: Inhibition at test concentration (%)
Dopamine D4 receptor = Dopamine D4 receptor (Homo sapiens, UniProt P21917); test: Off target activity panel; type: binding; settings: read-out: Inhibition at test concentration (%)
FLT-1 kinase = FLT-1 kinase (Homo sapiens, UniProt P17948); test: Off target activity panel; type: biochemical; settings: read-out: Inhibition at test concentration (%)
Histamine H2 receptor = Histamine H2 receptor (Homo sapiens, UniProt P25021); test: Off target activity panel; type: binding; settings: read-out: Inhibition at test concentration (%)
Kappa opioid receptor = Kappa opioid receptor (Homo sapiens, UniProt P41145); test: Off target activity panel; type: binding
Lyn A kinase = Lyn A kinase (Homo sapiens, UniProt P07948); test: Off target activity panel; type: biochemical
Matrix metalloprotease 9 = Matrix metalloprotease 9 (Homo sapiens, UniProt P14780); test: Off target activity panel; type: biochemical; settings: read-out: Inhibition at test concentration (%)
[10] = target: Melanin-concentrating hormone receptor 1 (Homo sapiens, UniProt Q99705); test: Off target activity panel; type: binding; settings: read-out: Inhibition at test concentration (%)
Monoamine oxidase A = Monoamine oxidase A (Homo sapiens, UniProt P21397); test: Off target activity panel; type: biochemical; settings: read-out: Inhibition at test concentration (%)
Mu opiod receptor = Mu opiod receptor (Homo sapiens, UniProt P35372); test: Off target activity panel; type: binding; settings: read-out: Inhibition at test concentration (%)
Muscarinic M2 receptor = Muscarinic M2 receptor (Homo sapiens, UniProt P08172); test: Off target activity panel; type: binding; settings: read-out: Inhibition at test concentration (%)
Muscarinic M3 receptor = Muscarinic M3 receptor (Homo sapiens, UniProt P20309); test: Off target activity panel; type: binding; settings: read-out: Inhibition at test concentration (%)
[11] = target: Norepinephrine transporter (Homo sapiens, UniProt P23975); test: Off target activity panel; type: binding; settings: read-out: Inhibition at test concentration (%)
p38alpha kinase = p38alpha kinase (Homo sapiens, UniProt Q16539); test: Off target activity panel; type: biochemical; settings: read-out: Inhibition at test concentration (%)
PDE5 = PDE5 (Homo sapiens, UniProt O76074); test: Off target activity panel; type: biochemical; settings: read-out: Inhibition at test concentration (%)
Serotinin 5-HT2B = Serotinin 5-HT2B (Homo sapiens, UniProt P41595); test: Off target activity panel; type: binding; settings: read-out: Inhibition at test concentration (%)
Serotonin 5-HT2C = Serotonin 5-HT2C (Homo sapiens, UniProt P28335); test: Off target activity panel (second 5-HT2C line); type: binding; settings: read-out: Inhibition at test concentration (%)
Serotonin 5-HT3 = Serotonin 5-HT3 (Homo sapiens, UniProt P46098); test: Off target activity panel; type: binding; settings: read-out: Inhibition at test concentration (%)
Serotonin 5-HT7 = Serotonin 5-HT7 (Homo sapiens, UniProt P34969); test: Off target activity panel; type: binding; settings: read-out: Inhibition at test concentration (%)
Somatostatin receptor 4 = Somatostatin receptor 4 (Homo sapiens, UniProt P31391); test: Off target activity panel; type: binding; settings: read-out: Inhibition at test concentration (%)
Urotensin receptor = Urotensin receptor (Homo sapiens, UniProt Q9UKP6); test: Off target activity panel; type: binding; settings: read-out: Inhibition at test concentration (%)
hERG potassium channels = hERG potassium channels (Homo sapiens, UniProt Q12809)
[12] = 10 µM, read-out: Inhibition at test concentration (%)

Structure (SMILES): Nc1[nH]ncc1-c1cc(Cl)ccc1Oc1cc(F)c(S(=O)(=O)Nc2cscn2)cc1Cl [PF-05089771, 4-[2-(5-amino-1H-pyrazol-4-yl)-4-chlorophenoxy]-5-chloro-2-fluoro-N-(1,3-thiazol-4-yl)benzenesulfonamide]
- IC50 (dogNav1.7): 0.013 µM
- Slope (dogNav1.7; dogNav1.7): 0.9
- IC50 (KvLQT): 10 µM
- Blockade of cynomolgus TRPV1 receptor [1]: No blockade
- inhibition at 10 µM (Adenosine A1 receptor): 15%
- inhibition at 10 µM (Adenosine A2a receptor): 15%
- Inhibition at test concentration (%) [2]: -5%
- inhibition at 10 µM [3]: 24%
- Inhibition at test concentration (%) (AMPA receptor): -13%
- inhibition at 10 µM [4]: 12%
- inhibition at 10 µM [5]: 4%
- Inhibition at test concentration (%) [6]: 16%
- inhibition at 10 µM (Cannabinoid receptor 1): 0%
- inhibition at 10 µM (Choline transporter): 18%
- Inhibition at test concentration (%) ([7]; 10 µM): 54%
- Ki ([7]; Cloride channel (GABA-gated)): 8.3 µM
- inhibition at 10 µM [8]: 17%
- inhibition at 10 µM [9]: 13%
- inhibition at 10 µM (Cyclooxygenase 1): 18%
- inhibition at 10 µM (Dopamine D1 receptor): 0%
- inhibition at 10 µM (Dopamine D2 receptor): 10%
- inhibition at 10 µM (Dopamine D4 receptor): 5%
- inhibition at 10 µM (FLT-1 kinase): 14%
- inhibition at 10 µM (Histamine H2 receptor): -3%
- inhibition at 10 µM (Kappa opioid receptor; [12]): 86%
- Ki (Kappa opioid receptor; Kappa opioid receptor): 0.39 µM
- inhibition at 10 µM (Lyn A kinase; [12]): 51%
- Ki (Lyn A kinase; Lyn A kinase): 7.3 µM
- inhibition at 10 µM (Matrix metalloprotease 9): -3%
- inhibition at 10 µM [10]: -7%
- inhibition at 10 µM (Monoamine oxidase A): -13%
- inhibition at 10 µM (Mu opiod receptor): 7%
- inhibition at 10 µM (Muscarinic M2 receptor): 3%
- inhibition at 10 µM (Muscarinic M3 receptor): 16%
- inhibition at 10 µM [11]: 27%
- inhibition at 10 µM (p38alpha kinase): 8%
- inhibition at 10 µM (PDE5): 7%
- inhibition at 10 µM (Serotinin 5-HT2B): -6%
- inhibition at 10 µM (Serotonin 5-HT2C): 4%
- inhibition at 10 µM (Serotonin 5-HT3): 4%
- inhibition at 10 µM (Serotonin 5-HT7): -7%
- inhibition at 10 µM (Somatostatin receptor 4): 5%
- inhibition at 10 µM (Urotensin receptor): 32%
- IC50 (hERG potassium channels): 10 µM
